Patent publication US12180207B2 (ARRAY BIOPHARMA INC., priority 2018, dated 2024)

Tests used:
[1] = target: T1, HEK-293 cells transfected with dox-inducible human wild type FGFR3 (Homo sapiens (Human), UniProt P22607); test: FGFR3 pFGFR cell assay (ELISA); assay type: cell-based; conditions: HEK-293 dox-inducible FGFR3, 1 hour compound, 100 ng/ml FGF-acidic
How it was run: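 Doxycycline-induced (1 μg/ml) HEK-293 cells expressing wild-type human FGFR3, treated 1 h with compound (1:3 series, top final 5 μM), then stimulated 5 min with 100 ng/ml FGF-acidic. Phospho-FGFR3 measured by ELISA (total FGFR3 capture, phosphotyrosine detection, OD 450 nm); IC50 from 4-parameter fit of POC values.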

[2] = target: dephosphorylated FGFR1 (SEQ ID NO: 1, amino acids 458 to 765) (Homo sapiens (Human), UniProt P11362); test: FGFR enzyme binding assay (HTRF tracer displacement), FGFR1; conditions: 5 nM dephosphorylated FGFR1, average of multiple determinations if made
Chain of dephosphorylated FGFR1 (SEQ ID NO: 1, amino acids 458 to 765) (P11362 458-765): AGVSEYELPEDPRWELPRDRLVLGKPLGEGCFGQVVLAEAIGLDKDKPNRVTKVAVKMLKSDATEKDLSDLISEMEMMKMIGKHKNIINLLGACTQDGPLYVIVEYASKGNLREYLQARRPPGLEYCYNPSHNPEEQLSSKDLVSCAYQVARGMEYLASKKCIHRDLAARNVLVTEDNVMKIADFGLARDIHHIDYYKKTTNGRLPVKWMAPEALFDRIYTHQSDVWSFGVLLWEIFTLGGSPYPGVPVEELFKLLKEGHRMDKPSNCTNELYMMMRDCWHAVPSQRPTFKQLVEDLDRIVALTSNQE
How it was run: (§1)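 Kinase and tracer were incubated with compound for 60 minutes at 22° C. Tracer displacement was then measured by HTRF, and results were expressed as POC with 1 μM control inhibitor defining full displacement.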

[3] = target: T1, HEK-293 cells transfected with dox-inducible human wild type FGFR3; test: FGFR3 pERK cell assay; assay type: cell-based; conditions: HEK-293 dox-inducible FGFR3, 1 hour compound, 100 ng/ml FGF-acidic; maximum concentration 5 μM
How it was run: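 Doxycycline-induced cells preincubated 1 h at 37 °C with compound (1:3 dilutions, top 5 μM final), then stimulated 5 min with 100 ng/ml FGF-acidic. Lysate phospho-ERK1/2 measured by MSD sandwich assay; IC50 at 50 POC from 4-parameter fit, normalised to no-compound and control-compound wells.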

[4] = target: HEK-293 cells transfected with dox-inducible human wild type FGFR1 (Homo sapiens (Human), UniProt P11362); test: FGFR1 pERK cell assay; assay type: cell-based; conditions: HEK-293 dox-inducible FGFR1, 1 hour compound, 100 ng/ml FGF-acidic; maximum concentration 5 μM
Chain of HEK-293 cells transfected with dox-inducible human wild type FGFR1 (P11362 22-822): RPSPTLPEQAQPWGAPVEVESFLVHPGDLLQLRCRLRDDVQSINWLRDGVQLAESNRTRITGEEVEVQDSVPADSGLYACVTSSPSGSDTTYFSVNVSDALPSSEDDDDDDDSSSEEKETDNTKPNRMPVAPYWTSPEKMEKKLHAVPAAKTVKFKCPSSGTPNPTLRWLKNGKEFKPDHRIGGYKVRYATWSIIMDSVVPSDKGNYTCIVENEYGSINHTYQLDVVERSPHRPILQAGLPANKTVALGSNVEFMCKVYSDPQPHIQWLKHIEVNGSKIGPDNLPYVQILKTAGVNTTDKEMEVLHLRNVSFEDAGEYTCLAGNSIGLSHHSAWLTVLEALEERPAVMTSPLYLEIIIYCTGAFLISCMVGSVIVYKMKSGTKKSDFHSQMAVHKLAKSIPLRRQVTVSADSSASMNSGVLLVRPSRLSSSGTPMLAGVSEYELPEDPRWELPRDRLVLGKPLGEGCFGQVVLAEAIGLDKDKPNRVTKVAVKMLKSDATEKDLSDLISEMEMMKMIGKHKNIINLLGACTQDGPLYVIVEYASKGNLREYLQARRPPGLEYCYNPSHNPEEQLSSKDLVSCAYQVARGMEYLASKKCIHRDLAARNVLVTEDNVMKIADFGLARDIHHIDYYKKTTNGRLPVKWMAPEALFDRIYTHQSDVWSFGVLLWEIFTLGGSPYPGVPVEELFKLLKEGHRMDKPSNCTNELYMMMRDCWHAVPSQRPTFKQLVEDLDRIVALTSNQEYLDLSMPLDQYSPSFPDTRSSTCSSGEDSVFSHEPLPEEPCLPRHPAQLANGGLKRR
How it was run: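 In HEK-293 cells with dox-induced human wild-type FGFR1, compounds (1:3 dilutions, top 5 μM final) were applied 1 h at 37°C before 5 min stimulation with 100 ng/ml FGF-acidic. Phospho-ERK1/2 measured by MSD sandwich immunoassay; IC50 from 4-parameter fit of POC versus vehicle and control compound.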

dephosphorylated FGFR2 = dephosphorylated FGFR2 (Homo sapiens (Human), UniProt P21802); test: FGFR enzyme binding assay (HTRF tracer displacement), FGFR2; conditions: 5 nM dephosphorylated FGFR2, average of multiple determinations if made
Chain of dephosphorylated FGFR2 (P21802 22-821): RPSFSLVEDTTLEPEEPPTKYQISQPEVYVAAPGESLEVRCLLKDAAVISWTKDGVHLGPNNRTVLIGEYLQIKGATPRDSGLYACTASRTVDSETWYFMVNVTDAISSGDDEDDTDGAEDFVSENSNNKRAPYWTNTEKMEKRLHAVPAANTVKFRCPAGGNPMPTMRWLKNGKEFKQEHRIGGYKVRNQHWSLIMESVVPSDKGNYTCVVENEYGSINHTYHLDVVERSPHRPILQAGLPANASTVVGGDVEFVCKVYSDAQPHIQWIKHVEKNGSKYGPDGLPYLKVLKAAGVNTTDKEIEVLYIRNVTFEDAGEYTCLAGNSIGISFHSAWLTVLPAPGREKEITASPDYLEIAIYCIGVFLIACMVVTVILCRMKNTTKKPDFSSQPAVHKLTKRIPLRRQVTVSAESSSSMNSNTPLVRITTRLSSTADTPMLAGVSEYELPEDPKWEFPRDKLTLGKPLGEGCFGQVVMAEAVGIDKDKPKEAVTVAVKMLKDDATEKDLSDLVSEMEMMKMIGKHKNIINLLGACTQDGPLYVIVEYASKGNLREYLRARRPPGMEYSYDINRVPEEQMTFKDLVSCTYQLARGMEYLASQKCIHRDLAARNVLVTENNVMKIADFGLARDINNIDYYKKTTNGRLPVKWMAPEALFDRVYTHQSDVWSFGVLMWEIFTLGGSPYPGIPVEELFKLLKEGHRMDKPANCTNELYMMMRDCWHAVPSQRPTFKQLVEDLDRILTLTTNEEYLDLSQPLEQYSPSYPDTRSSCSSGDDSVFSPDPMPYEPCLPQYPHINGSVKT
How it was run: as §1

[5] = target: FGFR1 (SEQ ID NO: 1, amino acids 458-765) (Homo sapiens (Human), UniProt P11362); test: LC/MS FGFR1 kobs assay (covalent protein modification); assay type: binding; conditions: 500 nM FGFR1, 3 μM compound
Chain of FGFR1 (SEQ ID NO: 1, amino acids 458-765) (P11362 458-765): as the sequence (P11362 458-765) above
How it was run: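 Covalent labeling of FGFR1 kinase domain (aa 458-765) tracked over time by intact-protein LC/MS after formic acid quench. kobs derived by fitting DMSO-normalized percent unmodified FGFR1 to an exponential decay model.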

T1 sequence (P22607 23-806): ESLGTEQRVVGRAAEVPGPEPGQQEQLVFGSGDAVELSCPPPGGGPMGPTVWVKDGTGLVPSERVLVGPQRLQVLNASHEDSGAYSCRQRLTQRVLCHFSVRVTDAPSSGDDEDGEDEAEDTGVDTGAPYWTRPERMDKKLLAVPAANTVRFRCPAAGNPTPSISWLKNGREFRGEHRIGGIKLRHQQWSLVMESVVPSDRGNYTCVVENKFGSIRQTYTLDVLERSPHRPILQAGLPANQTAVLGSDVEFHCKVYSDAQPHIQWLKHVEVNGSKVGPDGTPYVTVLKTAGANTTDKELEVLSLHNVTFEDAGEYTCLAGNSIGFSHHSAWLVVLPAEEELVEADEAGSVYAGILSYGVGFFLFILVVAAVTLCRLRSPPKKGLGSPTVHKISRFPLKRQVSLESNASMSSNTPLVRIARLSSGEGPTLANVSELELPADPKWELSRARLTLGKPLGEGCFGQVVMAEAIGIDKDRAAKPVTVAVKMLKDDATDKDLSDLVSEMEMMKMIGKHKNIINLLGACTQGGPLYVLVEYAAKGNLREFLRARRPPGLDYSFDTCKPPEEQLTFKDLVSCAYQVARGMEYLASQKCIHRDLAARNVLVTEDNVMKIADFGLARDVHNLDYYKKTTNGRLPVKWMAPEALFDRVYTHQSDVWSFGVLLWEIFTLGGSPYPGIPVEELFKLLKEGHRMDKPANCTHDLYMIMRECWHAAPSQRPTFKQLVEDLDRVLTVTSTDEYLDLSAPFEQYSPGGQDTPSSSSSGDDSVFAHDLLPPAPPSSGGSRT

IC50 [1]	IC50 [2]	IC50 [3]	IC50 [4]	IC50 (dephosphorylated FGFR2)	FGFR1 Enz kobs [5]	SMILES
77 nM	777 nM	108 nM	2530 nM	21 nM	0.00183 min⁻¹	C=CC(=O)N1CC(C(=O)N2CCC(n3ncc(-c4cc(OC)c5c(C#N)cnn5c4)c3C)CC2)C1 [Example 84, 6-(1-(1-(1-acryloylazetidine-3-carbonyl)piperidin-4-yl)-5-methyl-1H-pyrazol-4-yl)-4-methoxypyrazolo[1,5-a]pyridine-3-carbonitrile]
	202 nM	34 nM	605 nM	12 nM	0.00646 min⁻¹	C=CC(=O)N1CC(OC)(C(=O)N2CCC(n3ncc(-c4cc(OC)c5c(C#N)cnn5c4)c3C)CC2)C1 [Example 88, 6-(1-(1-(1-acryloyl-3-methoxyazetidine-3-carbonyl)piperidin-4-yl)-5-methyl-1H-pyrazol-4-yl)-4-methoxypyrazolo[1,5-a]pyridine-3-carbonitrile]
546 nM	420 nM	549 nM	≥ 5000 nM	17 nM	0.00058 min⁻¹	C=CC(=O)N1CC[C@@H](C(=O)N2CCC(n3ncc(-c4cc(OC)c5c(C#N)cnn5c4)c3C)CC2)C1 [Example 83, (R)-6-(1-(1-(1-acryloylpyrrolidine-3-carbonyl)piperidin-4-yl)-5-methyl-1H-pyrazol-4-yl)-4-methoxypyrazolo[1,5-a]pyridine-3-carbonitrile]
	284 nM	15 nM	341 nM	19 nM	0.00431 min⁻¹	C=CC(=O)N1CC(CN2CCC(n3ncc(-c4cc(OC)c5c(C#N)cnn5c4)c3C)CC2)(OC)C1 [Example 91, 6-(1-(1-((1-acryloyl-3-methoxyazetidin-3-yl)methyl)piperidin-4-yl)-5-methyl-1H-pyrazol-4-yl)-4-methoxypyrazolo[1,5-a]pyridine-3-carbonitrile]
	322 nM	520 nM	2350 nM	51 nM	0.00052 min⁻¹	C=CC(=O)N1CC(C(=O)N2CCC(n3ncc(-c4cc(OC)c5c(C#N)cnn5c4)c3C)CC2)C1(C)C (stereo not drawn) [Example 87, 6-(1-(1-(1-acryloyl-2,2-dimethylazetidine-3-carbonyl)piperidin-4-yl)-5-methyl-1H-pyrazol-4-yl)-4-methoxypyrazolo[1,5-a]pyridine-3-carbonitrile]
	379 nM	43 nM	2240 nM	54 nM	0.00243 min⁻¹	C=CC(=O)N1CC(C)(CN2CCC(n3ncc(-c4cc(OC)c5c(C#N)cnn5c4)c3C)CC2)C1 [Example 90, 6-(1-(1-((1-acryloyl-3-methylazetidin-3-yl)methyl)piperidin-4-yl)-5-methyl-1H-pyrazol-4-yl)-4-methoxypyrazolo[1,5-a]pyridine-3-carbonitrile]
	236 nM	22 nM	541 nM	53 nM	0.00364 min⁻¹	C=CC(=O)N1CC(CN2CCC(n3ncc(-c4cc(OC)c5c(C#N)cnn5c4)c3C)CC2)C1 [Example 89, 6-(1-(1-((1-acryloylazetidin-3-yl)methyl)piperidin-4-yl)-5-methyl-1H-pyrazol-4-yl)-4-methoxypyrazolo[1,5-a]pyridine-3-carbonitrile]
12 nM	289 nM	8 nM	59 nM	44 nM	0.00447 min⁻¹	C=CC(=O)N1CC(F)(C(=O)N2CCC(n3cc(-c4cc(OC)c5c(C#N)cnn5c4)cn3)CC2)C1 [Example 37, 6-(1-(1-(1-acryloyl-3-fluoroazetidine-3-carbonyl)piperidin-4-yl)-1H-pyrazol-4-yl)-4-methoxypyrazolo[1,5-a]pyridine-3-carbonitrile]
	342 nM	159 nM	2370 nM	12 nM	0.00258 min⁻¹	C=CC(=O)N1CC(C)(C(=O)N2CCC(n3ncc(-c4cc(OC)c5c(C#N)cnn5c4)c3C)CC2)C1 [Example 86, 6-(1-(1-(1-acryloyl-3-methylazetidine-3-carbonyl)piperidin-4-yl)-5-methyl-1H-pyrazol-4-yl)-4-methoxypyrazolo[1,5-a]pyridine-3-carbonitrile]
101 nM	26 nM	8 nM	52 nM		0.01019 min⁻¹	C=CC(=O)N1CC(C#N)(C(=O)N2CCC(n3cc(-c4cc(OC)c5c(C#N)cnn5c4)cn3)CC2)C1 [Example 39, 6-(1-(1-(1-acryloyl-3-cyanoazetidine-3-carbonyl)piperidin-4-yl)-1H-pyrazol-4-yl)-4-methoxypyrazolo[1,5-a]pyridine-3-carbonitrile]
64 nM	54 nM	90 nM	428 nM		0.0005 min⁻¹	C=CC(=O)N1CC(C(=O)N2CCC(n3cc(-c4cc(OC)c5c(C#N)cnn5c4)cn3)CC2)C1(C)C (stereo not drawn) [Example 43, 6-(1-(1-(1-acryloyl-2,2-dimethylazetidine-3-carbonyl)piperidin-4-yl)-1H-pyrazol-4-yl)-4-methoxypyrazolo[1,5-a]pyridine-3-carbonitrile]
16 nM	247 nM	19 nM	462 nM	36 nM	0.00492 min⁻¹	C=CC(=O)N1CC(F)(C(=O)N2CCC(n3ncc(-c4cc(OC)c5c(C#N)cnn5c4)c3C)CC2)C1 [Example 85, 6-(1-(1-(1-acryloyl-3-fluoroazetidine-3-carbonyl)piperidin-4-yl)-5-methyl-1H-pyrazol-4-yl)-4-methoxypyrazolo[1,5-a]pyridine-3-carbonitrile]

SMILES	IC50 [1]	IC50 [2]	IC50 [3]	IC50 [4]	IC50 (dephosphorylated FGFR2)	FGFR1 Enz kobs [5]
C=CC(=O)N1CC(C(=O)N2C3CC2CN(c2ccc(-c4cc(OC)c5c(C#N)cnn5c4)cn2)C3)C1 [Example 52, 6-(6-(6-(1-acryloylazetidine-3-carbonyl)-3,6-diazabicyclo[3.1.1]heptan-3-yl)pyridin-3-yl)-4-methoxypyrazolo[1,5-a]pyridine-3-carbonitrile]		86 nM	262 nM	759 nM	32 nM	0.00086 min⁻¹
C=CC(=O)N1CC(C(=O)N2C3CCC2CN(c2ccc(-c4cc(OC)c5c(C#N)cnn5c4)cn2)C3)C1 [Example 50, 6-(6-(8-(1-acryloylazetidine-3-carbonyl)-3,8-diazabicyclo[3.2.1]octan-3-yl)pyridin-3-yl)-4-methoxypyrazolo[1,5-a]pyridine-3-carbonitrile]		27 nM	25 nM	103 nM	14 nM	0.00381 min⁻¹
C=CC(=O)N1CC(C(=O)N2CC3CCC(C2)N3c2ccc(-c3cc(OC)c4c(C#N)cnn4c3)cn2)C1 [Example 51, 6-(6-(3-(1-acryloylazetidine-3-carbonyl)-3,8-diazabicyclo[3.2.1]octan-8-yl)pyridin-3-yl)-4-methoxypyrazolo[1,5-a]pyridine-3-carbonitrile]		70 nM	61 nM	198 nM	38 nM	0.00338 min⁻¹
C=CC(=O)N1C2COCC1CN(C(=O)N1CCC(n3cc(-c4cc(OC)c5c(C#N)cnn5c4)cn3)CC1)C2 [Example 3, 6-(1-(1-(9-acryloyl-3-oxa-7,9-diazabicyclo[3.3.1]nonane-7-carbonyl)piperidin-4-yl)-1H-pyrazol-4-yl)-4-methoxypyrazolo[1,5-a]pyridine-3-carbonitrile]	41 nM	44 nM	108 nM	870 nM		0.00172 min⁻¹
